“And” between values parts separate entries of the source, which are not always exact repeats. Identical values can stand only once.
Tests used:
[1] = test system: MDA-MB-231; assay: Cell cycle DNA content assay (flow cytometry); assay type: cell-based; settings: Homo sapiens, 24 h; MDA-MB-231, Breast, Parent line; read-out: EC50 @ 24 hours, Sub G1
Method: (§1) MDA-MB-231(F11)-luc parent and taxol-resistant cells were seeded at a density of 250,000 cells/well in a 12-well plate in 1 mL of in the appropriate media, in duplicates. The next day cells were treated with AMG 900 or taxol over a 10-point concentration range with a final DMSO concentration of 0.1% in taxol-free media. After 24 hours, cells were harvested with 1× trypsin-EDTA and transferred to PCR tubes. Cells were centrifuged at 2000 rpm for 4 minutes and the supernatant was aspirated. Cells were fixed in 200 μL of ice cold 90% methanol and stored at −20° C. for at least 24 hours. Fixed cells were centrifuged at 2000 rpm for 4 minutes to remove 90% methanol. Cells were washed with wash buffer and stained with 200 μL of propidium iodide (PI) for 30 minutes at 4° C. in the dark. An additional 400 μL of PI was added before data acquisition. Data was acquired and analyzed by flow cytometry (LSRII). A threshold gate was applied according to +4N (same as ≧4N) DNA content based on DMSO control and low/high drug-treated groups. The data was represented as percentage of control for +4N DNA content positive populations. The +4N DNA content cellular EC50 values were assigned using 4-parameter equation. […] Flow cytometric-based cell cycle analysis was performed to measure the percentage of ≧4N DNA content or SubG1 DNA content positive cells. The dose-response curves for AMG 900 represent the drug concentration plotted against the percentage of ≧4N DNA content positive cells. The dose-response curves for taxol represent the drug concentration plotted against the percentage of SubG1 DNA content positive cells. The EC50 values were calculated by 4-parameter fit model.

[2] = test system: MDA-MB-231-Taxol-r; assay: Cell cycle DNA content assay (flow cytometry); assay type: cell-based; settings: Homo sapiens, 24 h, Breast, Paclitaxel-selected, read-out: EC50 @ 24 hours, Sub G1
Method: as §1

[3] = test system: HCT116 AZD1152-resistant; assay: Colony formation assay (FIG. 6-B); assay type: cell-based, human; settings: both HCT116 cell lines (parental and AZD1152-resistant) compared
Method: Tumor cell lines were obtained from the American Type Culture Collection (ATCC) unless otherwise specified. The MDA-MB-231-PTX and NCI-H460-PTX cell lines were established by growing the cells in the presence of increasing concentrations of paclitaxel over a period of 6 months. The HCT116 AZD1152-resistant cell line was established by growing the cells in the presence of AZD1152 at 80 nmol/L. Tumor cells were treated with AMG 900, paclitaxel or AZD1152 (0.5, 5, 50 nmol/L) for 48 hours, washed twice with complete media, and cells were re-plated at a density of 5000 cells per well in drug-free complete media. Cells were grown until the DMSO control wells were confluent. Cells were stained with crystal violet dye (Sigma), washed with distilled water, and imaged using a digital scanner (Hewlett-Packard). Colony formation assay was performed with HCT116 cell lines (parental and AZD1152-resistant). Cells were treated with DMSO, AMG 900, AZD1152, or paclitaxel at the indicated concentrations for 48 hours and re-plated in complete media lacking the inhibitor. After the DMSO-treated cells reached confluence, the cells were stained with crystal violet and imaged (duplicate wells).

[4] = test system: MES-SA Dx5; assay: p-Histone H3 assay (ArrayScan VTi); assay type: cell-based; settings: Homo sapiens, 24 h; MES-SA Dx5, Uterine, Doxorubicin-selected, P-gp overexpressing
Method: (§2) MES-SA Dx5 and MES-SA cells were plated at a density of 10,000 cells/well onto 96-well plate in complete media and cultured for 24 hours. […] Cells were washed and fixed by adding 100 μL of 2× formaldehyde fixation buffer for 10 minutes and room temperature. […] Cells were immunostained with p-histone H3 antibody (5 μg/mL) and incubated at room temperature for 2 hours. Cells were washed in 100 μL of wash buffer. Next, cells were incubated with a goat anti-rabbit alexa-488 conjugated antibody (1.5 μg/mL) in wash buffer supplemented with Hoechest DNA dye (1 μg/mL) and incubated at room temperature in the dark for 30 minutes. Cells were washed twice with 100 μL of wash buffer. The 96-well plates were analyzed on an ArrayScan VTi (Cellomics) using a bioapplication algorithm (TargetActivation.V2). […] Cells were then fixed and stained with p-histone H3 antibody and counterstained with a DNA dye (Hoechest). Imaging-based analysis (ArrayScan VTi) was performed to measure the percentage of p-histone H3 positive cells. The dose-response curves represent either AMG 900 or taxol concentrations plotted against p-Histone H3 positive cells as a percentage of DMSO-treated control (POC). The EC50 values were calculated by 4-parameter fit model.

[5] = test system: MES-SA; assay: p-Histone H3 assay (ArrayScan VTi); assay type: cell-based; settings: Homo sapiens, 24 h, Uterine, Parent line
Method: as §2

[6] = test system: NCI-H460-taxol resistant tumor xenografts; assay: Growth of established NCI-H460-taxol resistant xenografts (Example 4); assay type: in vivo, athymic nude mice; settings: 12.5mpk IP QD 5 days/week × 2 wks
Method: To investigate whether AMG 900-induced suppression of aurora kinase activity inhibits cell proliferation, the antitumor efficacy of AMG 900 was evaluated in vivo against NCI-H460-taxol resistant tumor xenografts in athymic nude mice. Mice were dosed PO with AMG 900 (BID) either intermittently or continuously. Mice were dosed IP with paclitaxel (taxol) 5 days/week. An internal Amgen compound was used as a positive control in this study (data not shown). Tumors were measured twice per week. Treatment began on day 12 when the tumors were established. All groups were provided nutritional supplements on a daily basis throughout the study to maintain body weight. AMG 900 (free base) was formulated into suspension to concentrations of 1.5 and 0.3 mg/mL. […] The duration of the dosing phase for AMG 900 was three weeks, and two weeks for the taxol group. The tumors were measured with a digital caliper and the mice were weighed twice per week. Tumor volumes were calculated as follows: […] Tumor inhibition was calculated as follows: […] FIG. 5 illustrates the effects of AMG 900 and Taxol treatment on the growth of established H460-taxol resistant tumors. […] Tumors were measured twice per week. Treatment began 12 days after tumor implantation (arrow) when tumors were approximately 170 mm^3. Mice were dosed PO or IP once or twice daily for 3 weeks. Data represent mean ±SE for each group. *P values (not shown) correspond to statistical difference between groups treated with vehicle and AMG 900 or Taxol analyzed with repeated measure Sheffe's ANOVA over time using […]. The scheduled days listed in the legend represent days/ week. All groups were provided nutritional supplements throughout the study.

[7] = test system: NCI-H460; assay: Cell cycle DNA content assay (flow cytometry); assay type: cell-based; settings: Homo sapiens, 24 h; NCI-H460, Lung, Parent line; read-out: EC50 @ 24 hours, Sub G1
Method: (§3) NCI-H460 parental and NCI-H460 taxol-resistant cells were seeded at a density of 500,000 cells/well in a 6-well plate in 2 mL of appropriate complete media. The next day cells were treated with AMG 900 or taxol over a 6-point concentration range with a final DMSO concentration of 0.05% in media. After 24 hours, cells were pulsed with BrdU (1:100 dilution) and harvested. Cells were centrifuged at 1600 rpm for 4 minutes and the supernatant was aspirated. Cells were washed in 1× PBS and fixed in 900 μL of ice cold 90% methanol and stored at −20° C. Fixed cells were centrifuged at 2000 rpm for 4 minutes to remove 90% methanol. Cells were washed with 200 μL of wash buffer and stained with 200 μL of propidium iodide (PI) overnight at 4° C. in the dark. Data was acquired and analyzed by flow cytomety (LSRII). A threshold gate was applied according to +4N (same as ≧4N) DNA content and SubG1 positive populations based on DMSO-treated control and low/high drug-treated groups. The data was represented as a percentage of +4N DNA and SubG1 positive subpopulations. The +4N (same as ≧4N) DNA content or SubG1 cellular EC50 values were calculated using a 4-parameter equation. Lung tumor cell lines were treated with control (DMSO), AMG 900 or taxol over a 6-point dose range for 24 hours. Flow cytometric-based cell cycle analysis was performed to measure the percentage of ≧4N DNA content or SubG1 DNA content positive cells. The dose-response curves for AMG 900 represent the drug concentration plotted against the percentage of ≧4N DNA content positive cells. The dose-response curves for taxol represent the drug concentration plotted against the percentage of SubG1 DNA content positive cells. The EC50 values were calculated by 4-parameter fit model.

[8] = test system: NCI-H460-Taxol-r; assay: Cell cycle DNA content assay (flow cytometry); assay type: cell-based; settings: Homo sapiens, 24 h, Lung, Paclitaxel-selected, read-out: EC50 @ 24 hours, Sub G1
Method: as §3

SMILES: CC(=O)O[C@H]1C(=O)[C@@]2(C)[C@H]([C@H](OC(=O)c3ccccc3)[C@]3(O)C[C@H](OC(=O)[C@H](O)[C@@H](NC(=O)c4ccccc4)c4ccccc4)C(C)=C1C3(C)C)[C@]1(OC(C)=O)CO[C@@H]1C[C@@H]2O [Paclitaxel, reference compound]
- EC50 [1]: 2 nM
- EC50 [2]: 95 nM
- sensitivity in colony formation [3]: equally sensitive
- EC50 [4]: > 1250 nM
- EC50 [5]: 10 nM
- Tumor volume, Mean [6]: 1383 mm^3
- Tumor volume, Median [6]: 1072.0 mm^3
- % Inhibition (tumor growth) ([6]; listed as Taxol): 20% and 19.7%
- EC50 [7]: 10 nM
- EC50 [8]: > 100 nM
